Experimental data taken from paper PMC9380258, “Primary and secondary functions of HLA-E are determined by stability and conformation of the peptide-bound complexes” (Cell Reports, 2022).

What was measured:
HLA-E [1] = format: binding, human
HLA-E [2] = format: binding, human; remark: listed apart in the source
HLA-E*01:03 = HLA-E*01:03 (Homo sapiens, UniProt P13747); test: SEC-SAXS of peptide-refolded HLA-E*01:03 complexes

Sequence: RMAATAVVL [Mtb14 P7V]
- increase in the ELISA-based binding signal (HLA-E [1]): 36%
- increase in thermal stability (HLA-E [2]): 3.6 °C
- decrease in the Rg (HLA-E*01:03): 6.8 Å
- decrease in the dmax (HLA-E*01:03): 23 Å
